Our source for the GI50 and TGI values is PubChem BioAssay (NCI).

The structures appear in SMILES notation.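 Results reflect a 48-hour exposure of cells in 96-well plates to compound at five concentrations. GI50 is the concentration that inhibits growth by half. At the TGI there is no net growth.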

Common to all, as to assay: inhibition of tumour cell growth, NCI panel, 48 h
In experiment [1] the test system is HCT-116 colon.
The test system of experiment [2] is CAKI-1 renal.
For experiment [3], the system named is UACC-257 melanoma.
Experiment [4] deals with NCI-H460 lung.
The test system of experiment [5] is RXF 393 renal.
Experiment [6] concerns U251 CNS.
In experiment [7] the test system is UO-31 renal.
Experiment [8] has as its system SN12C renal.
The test system of experiment [9] is OVCAR-8 ovarian.
The subject of experiment [10] is SK-OV-3 ovarian.

For the compound `C/C(=N\Nc1ccc(Cl)cn1)c1ccc2ccccc2n1`, the GI50 is 1.59 µM in [1]; 2.81 µM in experiment [2]; 5.33 µM in experiment [3]; 2.92 µM in experiment [4]; 2.95 µM in [5]; 2.83 µM in [6]. For the same compound, the GI50 in [7] was 1.74 µM; in [8], 3.19 µM; in [9], 3.04 µM; in [10] it was 3.73 µM. For the same compound, the TGI in experiment [1] is greater than 100 µM; in [2], 87.1 µM; in [3], 97.3 µM; in experiment [4], 19.6 µM; in experiment [5] it was greater than 100 µM; in [6], greater than 100 µM. Besides, the TGI is 12.9 µM in experiment [7], greater than 100 µM in experiment [8], greater than 100 µM in [9] and greater than 100 µM in experiment [10].

For `Cc1cc2ncnn2cc1Nc1ncc2c(n1)n(C1CCOCC1)c(=O)n2C`, the GI50 in [1] was 10.7 µM; in [2] it was 2.88 µM; in [3], 7.52 µM; in [4], 4.74 µM; in experiment [5], 3.73 µM; in [6], 14.1 µM. The GI50 is 2.83 µM in [7], 6.21 µM in experiment [8], 11.5 µM in experiment [9] and 2.15 µM in experiment [10]. The TGI was greater than 100 µM in experiment [1]; 52.2 µM in experiment [2]; 72.5 µM in experiment [3]; greater than 100 µM in experiment [4]; 29.9 µM in experiment [5]; greater than 100 µM in [6]. Moreover, the TGI in [7] is greater than 100 µM; in [8], greater than 100 µM; in experiment [9], greater than 100 µM; in experiment [10], 15.2 µM.

Consider `COC(=O)C(CC(=O)Nc1ccc(C)cc1)C(=O)C(=O)Nc1c(C(C)C)cccc1C(C)C` (stereo not drawn), for which the TGI in experiment [1], in [2], in experiment [4], in [5], in [6] and in experiment [7] was greater than 100 µM each time. In addition, the TGI in [8], in experiment [9] and in [10] was greater than 100 µM in each case.

For the compound `Cc1cc(NS(=O)(=O)c2ccc(Nc3c4ccccc4nc4c(C(=O)N5CCN(CCO)CC5)cccc34)cc2)no1`, the TGI in [1], in experiment [2], in [3], in experiment [4], in experiment [5] and in [6] was greater than 100 µM each time. For the same compound, the TGI in experiment [7], in [8], in experiment [9] and in [10] was greater than 100 µM each time.

As for `CC12OC(C(=O)C13CC3)C1C(=O)c3ccc4c(ccc5ccccc54)c3C(=O)C12` (stereo not drawn), the GI50 was 43.7 µM in [1]; 19.7 µM in experiment [2]; 33.5 µM in experiment [3]; 15.6 µM in [4]; 22.5 µM in experiment [5]; 77.3 µM in experiment [7]. The GI50 in experiment [9] was 30.4 µM; in experiment [10] it was 76.4 µM. Further, the TGI was greater than 100 µM in experiment [1]; 41.8 µM in [2]; greater than 100 µM in experiment [3]; 55.6 µM in [4]; 61.8 µM in experiment [5]; greater than 100 µM in experiment [7]. The TGI in [9] and in experiment [10] was greater than 100 µM throughout.

In the case of `CCc1nc2cc(F)c(/C=C/C(=O)NO)cc2c(=O)n1CCc1ccccc1`, the GI50 in [1] was 0.313 µM; in [2] it was 0.305 µM; in [3] it was 0.216 µM; in [4], 0.31 µM; in experiment [5], 0.23 µM; in [6], 0.277 µM. Moreover, the results for the GI50 in experiment [7], in experiment [9] and in [10] were 0.2 µM, 0.287 µM and 0.263 µM, respectively. The TGI in experiment [1] came out at 11 µM; in [2], 3.12 µM; in experiment [3] it was 0.72 µM; in experiment [4] it was 3.17 µM; in experiment [5], 0.731 µM; in experiment [6], 0.891 µM. Besides, the TGI was determined as 0.648 µM in [7], 2.24 µM in experiment [9] and 0.787 µM in experiment [10].

In the case of `Cc1cc(NC(=S)SCc2ccc(F)cc2)c([N+](=O)[O-])cc1C`, the TGI in experiment [1] was greater than 100 µM; in experiment [2], greater than 100 µM; in experiment [3] it was 53.6 µM; in experiment [4], greater than 100 µM; in [5], 82.9 µM; in experiment [6] it was 57.5 µM. For the same compound, the TGI in [8] is 48.4 µM; in experiment [9], 38.6 µM; in [10] it was greater than 100 µM.

Consider `CCCN(CCC)C(=O)c1c([N+](=O)[O-])cc(C(F)(F)F)cc1[N+](=O)[O-]`, for which the TGI in [1] was 87.4 µM; in experiment [2], greater than 100 µM; in experiment [4] it was greater than 100 µM; in [5], 79.7 µM; in experiment [6], greater than 100 µM; in experiment [7], greater than 100 µM. The TGI in [8], in experiment [9] and in [10] was greater than 100 µM throughout.

`[N-]=[N+]=C1C(=O)NN=C1c1ccccc1`: the TGI in [1], in experiment [2], in experiment [3], in experiment [4], in experiment [5] and in experiment [6] was greater than 100 µM throughout. Besides, the TGI in experiment [8], in [9] and in experiment [10] was greater than 100 µM in each case.

For the compound `CC1(C)C(=O)/C(=C\c2cccnc2)C[C@]2(C)[C@H]3CC[C@@H]4[C@H]5[C@H](C(=O)/C=C/c6cccnc6)CC[C@]5(C(=O)O)CC[C@@]4(C)[C@]3(C)CC[C@@H]12`, the GI50 in [1] is 1.61 µM; in experiment [2] it was 1.66 µM; in experiment [3] it was 1.88 µM; in [4] it was 2.12 µM; in experiment [5], 1.67 µM; in experiment [6] it was 1.74 µM. The GI50 was 2.79 µM in [8], 3.5 µM in experiment [9] and 3.82 µM in [10]. The TGI in experiment [1] is 3.56 µM; in experiment [2], 3.38 µM; in experiment [3], 4.25 µM; in experiment [4] it was 6.69 µM; in experiment [5], 3.1 µM; in experiment [6], 3.26 µM. The TGI in [8] is 9.76 µM; in experiment [9], greater than 100 µM; in [10], 14.5 µM.
